Measurements: publication PMC8708872, “Discovery of a Novel Template, 7-Substituted 7-Deaza-4′-Thioadenosine Derivatives as Multi-Kinase Inhibitors” (Pharmaceuticals, 2021)

Legend:
A549 = experiment: SRB cell proliferation inhibition assay; assay type: cell-based; settings: human lung cancer cells, 72 h
Description: (§1) Human lung cancer cells (A549), colorectal cancer (HCT116) cells, breast cancer cells (MDA-MB-231), liver cancer cells (SK-HEP-1), and prostate cancer cells (PC-3) were purchased from the American Type Culture Collection (Manassas, VA, USA). Human gastric cancer cells (SNU-638) were purchased from the Korean Cell Line Bank (Seoul, Korea). Cells were cultured in medium (Dulbecco’s modified Eagle’s medium for MDA-MB-231 and SK-HEP-1 cells; Roswell Park Memorial Institute 1640 for A549, HCT116, SNU-638, PC-3 cells) supplemented with penicillin-streptomycin and 10% fetal bovine serum at 37 °C in a humidified incubator with 5% carbon dioxide. Cells were seeded at a density of 4–7 × 10^4 cells/mL in 96-well culture plates, and then treated with indicated compounds for 72 h. At the end of the experiment, cells were fixed with 10% trichloroacetic acid (TCA) solution and subjected to sulforhodamine B (SRB) assay to determine cell proliferation. The percentage of cell proliferation was calculated with the following formula:Cell proliferation (%) = 100 × [(A treated − A zero day)/(A control − A zero day)], where A is the average absorbance. The IC50 values were calculated through non-linear regression analysis using TableCurve 2D v5.01 (Systat Software Inc., San Jose, CA, USA). All experiments were performed in triplicate and data shown are representative of two or three independent experiments.

HCT116 = experiment: SRB cell proliferation inhibition assay; assay type: cell-based; settings: HCT-116, human colon cancer cells, 72 h
Description: as §1

MDA-MB-231 = experiment: SRB cell proliferation inhibition assay; assay type: cell-based; settings: human breast cancer cells, 72 h
Description: as §1

PC-3 = experiment: SRB cell proliferation inhibition assay; assay type: cell-based; settings: human prostate cancer cells, 72 h
Description: as §1

SK-HEP-1 = experiment: SRB cell proliferation inhibition assay; assay type: cell-based; settings: SK-HEP1, human liver cancer cells, 72 h
Description: as §1

SNU638 = experiment: SRB cell proliferation inhibition assay; assay type: cell-based; settings: SNU-638, human stomach cancer cells, 72 h
Description: as §1

ACHN = experiment: Antiproliferative activity against ACHN; assay type: cell-based; settings: Homo sapiens, renal cancer cell line expressing CK1δ and DYRK2, read-out: IC50 cell growth of ACHN
ABL1-nonphosphorylated = target: T1, ABL1-nonphosphorylated (Homo sapiens, UniProt P00519); experiment: Kinome scan; assay type: binding; settings: 1000 nM
T1 construct: purchased Eurofins DiscoverX Corporation
Description: (§2) The kinome scan assays were carried out at Eurofins DiscoverX Corporation. For kinome scan profiling of compound 1g, it was screened at 1μM against 96 kinases (N = 2 independent experiments). The results for binding interactions are reported as % inhibition, where higher values indicate strong affinity; see the Supporting Information, Table S1 for full kinome profile.

ABL1-phosphorylated = target: T2, ABL1-phosphorylated (Homo sapiens, UniProt P00519); experiment: Kinome scan; assay type: binding; settings: 1000 nM
T2 construct: purchased Eurofins DiscoverX Corporation
Description: as §2

ACVR1B = target: T3, ACVR1B (Homo sapiens, UniProt P36896); experiment: Kinome scan; assay type: binding; settings: 1000 nM
T3 construct: purchased Eurofins DiscoverX Corporation
Description: as §2

ADCK3 = target: T4, ADCK3 (Homo sapiens, UniProt Q8NI60); experiment: Kinome scan; assay type: binding; settings: 1000 nM
T4 construct: purchased Eurofins DiscoverX Corporation
Description: as §2

AKT1 = target: T5, AKT1 (Homo sapiens, UniProt P31749); experiment: Kinome scan; assay type: binding; settings: 1000 nM
T5 construct: purchased Eurofins DiscoverX Corporation
Description: as §2

AKT2 = target: T6, AKT2 (Homo sapiens, UniProt P31751); experiment: Kinome scan; assay type: binding; settings: 1000 nM
T6 construct: purchased Eurofins DiscoverX Corporation
T6 sequence (P31751 whole entry): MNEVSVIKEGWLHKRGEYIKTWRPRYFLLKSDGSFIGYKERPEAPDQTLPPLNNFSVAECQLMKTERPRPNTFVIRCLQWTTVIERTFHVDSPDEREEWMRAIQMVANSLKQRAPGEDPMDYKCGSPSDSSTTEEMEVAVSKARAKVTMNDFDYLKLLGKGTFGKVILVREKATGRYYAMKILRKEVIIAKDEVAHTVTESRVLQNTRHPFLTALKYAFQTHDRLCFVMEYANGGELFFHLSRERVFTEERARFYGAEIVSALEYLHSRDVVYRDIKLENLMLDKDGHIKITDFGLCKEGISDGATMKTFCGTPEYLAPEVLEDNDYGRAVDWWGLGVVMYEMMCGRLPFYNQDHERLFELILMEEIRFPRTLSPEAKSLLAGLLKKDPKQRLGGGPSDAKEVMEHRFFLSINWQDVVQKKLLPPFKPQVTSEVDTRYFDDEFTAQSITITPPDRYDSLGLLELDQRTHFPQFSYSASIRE
Description: as §2

AURKA = target: T7, AURKA (Homo sapiens, UniProt O14965); experiment: Kinome scan; assay type: binding; settings: 1000 nM
T7 construct: purchased Eurofins DiscoverX Corporation
Description: as §2

CDK7 = target: T8, CDK7 (Homo sapiens, UniProt P50613); experiment: Kinome scan; assay type: binding; settings: 1000 nM
T8 construct: purchased Eurofins DiscoverX Corporation
Description: as §2

CSNK1G2 = target: T9, CSNK1G2 (Homo sapiens, UniProt P78368); experiment: Kinome scan; assay type: binding; settings: 1000 nM
T9 construct: purchased Eurofins DiscoverX Corporation
T9 sequence (P78368 whole entry): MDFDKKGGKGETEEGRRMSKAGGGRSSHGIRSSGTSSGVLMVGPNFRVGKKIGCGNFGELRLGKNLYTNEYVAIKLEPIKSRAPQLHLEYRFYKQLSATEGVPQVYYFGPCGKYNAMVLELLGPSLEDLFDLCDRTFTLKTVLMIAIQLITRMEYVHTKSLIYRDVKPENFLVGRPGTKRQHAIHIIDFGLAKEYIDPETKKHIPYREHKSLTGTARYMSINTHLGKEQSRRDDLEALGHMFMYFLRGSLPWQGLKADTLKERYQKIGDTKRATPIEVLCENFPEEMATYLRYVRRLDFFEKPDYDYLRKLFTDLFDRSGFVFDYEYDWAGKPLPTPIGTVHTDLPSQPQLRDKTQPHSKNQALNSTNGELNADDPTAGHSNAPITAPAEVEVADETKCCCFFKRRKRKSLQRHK
Description: as §2

EGFR(L858R) = target: T10, EGFR(L858R) (Homo sapiens, UniProt P00533, L858R); experiment: Kinome scan; assay type: binding; settings: 1000 nM
T10 construct: purchased Eurofins DiscoverX Corporation
Description: as §2

IKK-alpha = target: T11, IKK-alpha (Homo sapiens, UniProt O15111); experiment: Kinome scan; assay type: binding; settings: 1000 nM
T11 construct: purchased Eurofins DiscoverX Corporation
T11 sequence (O15111 whole entry): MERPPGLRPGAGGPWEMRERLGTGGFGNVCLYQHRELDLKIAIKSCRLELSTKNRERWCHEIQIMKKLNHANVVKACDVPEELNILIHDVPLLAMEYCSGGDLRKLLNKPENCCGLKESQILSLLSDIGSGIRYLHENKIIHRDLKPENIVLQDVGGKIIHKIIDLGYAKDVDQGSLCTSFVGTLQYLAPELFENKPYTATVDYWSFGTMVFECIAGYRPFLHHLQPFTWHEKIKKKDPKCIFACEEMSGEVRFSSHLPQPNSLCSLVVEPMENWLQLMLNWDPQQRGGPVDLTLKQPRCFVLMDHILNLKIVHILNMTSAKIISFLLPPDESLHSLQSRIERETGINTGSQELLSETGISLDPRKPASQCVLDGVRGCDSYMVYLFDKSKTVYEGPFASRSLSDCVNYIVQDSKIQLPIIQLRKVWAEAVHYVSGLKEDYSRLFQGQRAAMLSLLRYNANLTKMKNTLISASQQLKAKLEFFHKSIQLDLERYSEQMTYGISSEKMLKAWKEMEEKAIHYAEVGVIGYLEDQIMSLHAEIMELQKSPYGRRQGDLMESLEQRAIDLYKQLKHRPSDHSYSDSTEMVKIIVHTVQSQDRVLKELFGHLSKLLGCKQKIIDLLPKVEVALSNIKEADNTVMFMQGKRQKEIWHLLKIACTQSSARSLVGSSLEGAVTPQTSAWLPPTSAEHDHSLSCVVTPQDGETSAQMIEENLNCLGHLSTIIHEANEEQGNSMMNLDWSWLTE
Description: as §2

JNK1 = target: T12, JNK1 (Homo sapiens, UniProt P45983); experiment: Kinome scan; assay type: binding; settings: 1000 nM
T12 construct: purchased Eurofins DiscoverX Corporation
T12 sequence (P45983 whole entry): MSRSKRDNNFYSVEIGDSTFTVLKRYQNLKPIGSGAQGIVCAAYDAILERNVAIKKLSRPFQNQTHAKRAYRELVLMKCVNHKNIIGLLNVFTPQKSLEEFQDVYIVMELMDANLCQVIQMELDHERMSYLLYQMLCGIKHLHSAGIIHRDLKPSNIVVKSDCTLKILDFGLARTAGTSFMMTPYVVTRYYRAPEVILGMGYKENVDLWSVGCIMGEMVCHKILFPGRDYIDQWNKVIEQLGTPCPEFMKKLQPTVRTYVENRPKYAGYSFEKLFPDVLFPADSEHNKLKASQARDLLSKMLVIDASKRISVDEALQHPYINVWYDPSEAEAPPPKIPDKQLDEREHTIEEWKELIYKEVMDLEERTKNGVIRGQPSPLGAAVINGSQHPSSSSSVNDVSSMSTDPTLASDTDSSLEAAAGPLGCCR
Description: as §2

KIT(V559D,T670I) = target: T13, KIT(V559D,T670I) (Homo sapiens, UniProt P10721, T670I/V559D); experiment: Kinome scan; assay type: binding; settings: 1000 nM
T13 construct: purchased Eurofins DiscoverX Corporation
Description: as §2

LKB1 = target: T14, LKB1 (Homo sapiens, UniProt Q15831); experiment: Kinome scan; assay type: binding; settings: 1000 nM
T14 construct: purchased Eurofins DiscoverX Corporation
Description: as §2

MAP3K4 = target: T15, MAP3K4 (Homo sapiens, UniProt Q9Y6R4); experiment: Kinome scan; assay type: binding; settings: 1000 nM
T15 construct: purchased Eurofins DiscoverX Corporation
Description: as §2

MARK3 = target: T16, MARK3 (Homo sapiens, UniProt P27448); experiment: Kinome scan; assay type: binding; settings: 1000 nM
T16 construct: purchased Eurofins DiscoverX Corporation
Description: as §2

MET = target: T17, MET (Homo sapiens, UniProt P08581); experiment: Kinome scan; assay type: binding; settings: 1000 nM
T17 construct: purchased Eurofins DiscoverX Corporation
Description: as §2

PAK1 = target: T18, PAK1 (Homo sapiens, UniProt Q13153); experiment: Kinome scan; assay type: binding; settings: 1000 nM
T18 construct: purchased Eurofins DiscoverX Corporation
Description: as §2

PCTK1 = target: T19, PCTK1 (Homo sapiens, UniProt Q00536); experiment: Kinome scan; assay type: binding; settings: 1000 nM
T19 construct: purchased Eurofins DiscoverX Corporation
Description: as §2

PDGFRA = target: T20, PDGFRA (Homo sapiens, UniProt P16234); experiment: Kinome scan; assay type: binding; settings: 1000 nM
T20 construct: purchased Eurofins DiscoverX Corporation
T20 sequence (P16234 24-1089): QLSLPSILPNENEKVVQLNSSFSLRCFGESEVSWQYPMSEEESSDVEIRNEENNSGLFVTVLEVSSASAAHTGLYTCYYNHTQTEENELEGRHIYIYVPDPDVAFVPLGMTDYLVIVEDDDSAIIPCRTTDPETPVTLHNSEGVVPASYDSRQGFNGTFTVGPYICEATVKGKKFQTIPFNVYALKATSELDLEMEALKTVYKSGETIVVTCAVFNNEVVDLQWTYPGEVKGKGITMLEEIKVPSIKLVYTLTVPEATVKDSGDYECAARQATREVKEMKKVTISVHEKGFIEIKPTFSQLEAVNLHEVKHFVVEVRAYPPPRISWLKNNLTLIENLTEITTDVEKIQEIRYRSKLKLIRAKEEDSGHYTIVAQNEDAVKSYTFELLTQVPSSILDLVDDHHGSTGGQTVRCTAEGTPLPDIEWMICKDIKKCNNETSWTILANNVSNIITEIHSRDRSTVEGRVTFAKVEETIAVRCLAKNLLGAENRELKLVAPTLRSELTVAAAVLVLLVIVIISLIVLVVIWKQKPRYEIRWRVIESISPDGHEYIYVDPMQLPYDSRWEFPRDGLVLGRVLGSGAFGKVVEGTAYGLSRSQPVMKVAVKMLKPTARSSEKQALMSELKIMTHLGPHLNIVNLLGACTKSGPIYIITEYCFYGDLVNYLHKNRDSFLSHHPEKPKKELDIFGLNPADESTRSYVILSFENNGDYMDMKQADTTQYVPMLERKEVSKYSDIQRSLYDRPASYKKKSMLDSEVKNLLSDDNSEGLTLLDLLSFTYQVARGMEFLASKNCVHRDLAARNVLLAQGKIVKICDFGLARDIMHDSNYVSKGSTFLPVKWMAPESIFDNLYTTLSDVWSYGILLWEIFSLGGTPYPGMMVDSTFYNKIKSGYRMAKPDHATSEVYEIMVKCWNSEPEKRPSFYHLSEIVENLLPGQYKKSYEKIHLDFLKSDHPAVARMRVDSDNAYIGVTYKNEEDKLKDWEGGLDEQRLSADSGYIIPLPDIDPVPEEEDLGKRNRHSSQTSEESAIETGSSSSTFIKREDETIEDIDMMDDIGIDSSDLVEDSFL
Description: as §2

PDGFRB = target: T21, PDGFRB (Homo sapiens, UniProt P09619); experiment: Kinome scan; assay type: binding; settings: 1000 nM
T21 construct: purchased Eurofins DiscoverX Corporation
T21 sequence (P09619 33-1106): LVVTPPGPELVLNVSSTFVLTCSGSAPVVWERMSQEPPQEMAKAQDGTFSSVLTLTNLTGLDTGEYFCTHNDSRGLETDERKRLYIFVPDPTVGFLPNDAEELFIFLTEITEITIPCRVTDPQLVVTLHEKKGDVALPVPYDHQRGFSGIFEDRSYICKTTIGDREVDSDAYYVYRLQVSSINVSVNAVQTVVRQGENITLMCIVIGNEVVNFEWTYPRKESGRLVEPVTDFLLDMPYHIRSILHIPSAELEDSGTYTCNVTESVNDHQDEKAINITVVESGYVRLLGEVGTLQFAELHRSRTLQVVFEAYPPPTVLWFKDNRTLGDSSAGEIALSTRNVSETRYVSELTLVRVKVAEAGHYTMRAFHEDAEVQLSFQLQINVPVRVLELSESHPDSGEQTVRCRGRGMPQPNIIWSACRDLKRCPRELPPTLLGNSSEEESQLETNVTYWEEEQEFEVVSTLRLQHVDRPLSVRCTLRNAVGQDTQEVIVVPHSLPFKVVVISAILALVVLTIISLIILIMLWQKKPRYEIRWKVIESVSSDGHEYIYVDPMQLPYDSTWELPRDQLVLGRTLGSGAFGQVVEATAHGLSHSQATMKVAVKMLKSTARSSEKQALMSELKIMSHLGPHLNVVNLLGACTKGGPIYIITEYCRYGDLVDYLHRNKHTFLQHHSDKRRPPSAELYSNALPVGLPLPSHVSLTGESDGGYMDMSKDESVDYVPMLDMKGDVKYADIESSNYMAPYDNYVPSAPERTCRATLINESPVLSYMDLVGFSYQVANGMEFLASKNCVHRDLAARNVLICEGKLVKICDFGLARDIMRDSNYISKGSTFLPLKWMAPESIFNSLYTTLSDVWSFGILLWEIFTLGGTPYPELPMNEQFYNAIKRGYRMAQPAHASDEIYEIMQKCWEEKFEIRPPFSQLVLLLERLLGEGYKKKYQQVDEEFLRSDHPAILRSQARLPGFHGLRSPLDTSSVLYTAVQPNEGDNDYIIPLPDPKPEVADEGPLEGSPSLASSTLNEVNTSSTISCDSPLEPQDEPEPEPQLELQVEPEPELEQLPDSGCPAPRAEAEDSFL
Description: as §2

PIK3CG = target: T22, PIK3CG (Homo sapiens, UniProt P48736); experiment: Kinome scan; assay type: binding; settings: 1000 nM
T22 construct: purchased Eurofins DiscoverX Corporation
Description: as §2

PKAC-alpha = target: T23, PKAC-alpha (Homo sapiens, UniProt P17612); experiment: Kinome scan; assay type: binding; settings: 1000 nM
T23 construct: purchased Eurofins DiscoverX Corporation
Description: as §2

PLK1 = target: T24, PLK1 (Homo sapiens, UniProt P53350); experiment: Kinome scan; assay type: binding; settings: 1000 nM
T24 construct: purchased Eurofins DiscoverX Corporation
Description: as §2

PLK4 = target: T25, PLK4 (Homo sapiens, UniProt O00444); experiment: Kinome scan; assay type: binding; settings: 1000 nM
T25 construct: purchased Eurofins DiscoverX Corporation
Description: as §2

PRKCE = target: T26, PRKCE (Homo sapiens, UniProt Q02156); experiment: Kinome scan; assay type: binding; settings: 1000 nM
T26 construct: purchased Eurofins DiscoverX Corporation
T26 sequence (Q02156 whole entry): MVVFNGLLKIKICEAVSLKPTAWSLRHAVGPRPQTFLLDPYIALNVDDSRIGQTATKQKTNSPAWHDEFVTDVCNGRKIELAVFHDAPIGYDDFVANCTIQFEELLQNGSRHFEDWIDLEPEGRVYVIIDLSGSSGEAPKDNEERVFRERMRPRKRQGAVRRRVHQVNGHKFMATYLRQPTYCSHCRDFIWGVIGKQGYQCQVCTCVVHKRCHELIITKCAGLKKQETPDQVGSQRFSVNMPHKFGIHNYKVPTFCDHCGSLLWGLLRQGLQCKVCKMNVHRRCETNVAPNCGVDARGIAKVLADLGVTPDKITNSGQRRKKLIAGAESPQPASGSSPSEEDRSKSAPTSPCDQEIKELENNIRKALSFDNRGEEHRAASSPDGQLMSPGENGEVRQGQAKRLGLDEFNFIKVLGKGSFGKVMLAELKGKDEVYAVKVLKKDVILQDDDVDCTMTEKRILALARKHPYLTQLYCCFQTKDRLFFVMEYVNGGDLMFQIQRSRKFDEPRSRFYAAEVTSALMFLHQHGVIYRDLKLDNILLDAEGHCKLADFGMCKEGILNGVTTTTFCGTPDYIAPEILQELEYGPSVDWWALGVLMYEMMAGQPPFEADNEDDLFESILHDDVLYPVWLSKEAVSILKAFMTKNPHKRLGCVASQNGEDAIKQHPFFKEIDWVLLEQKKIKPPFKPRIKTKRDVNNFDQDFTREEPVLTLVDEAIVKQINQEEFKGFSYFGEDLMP
Description: as §2

p38-alpha = target: T27, p38-alpha (Homo sapiens, UniProt Q16539); experiment: Kinome scan; assay type: binding; settings: 1000 nM
T27 construct: purchased Eurofins DiscoverX Corporation
Description: as §2

C#Cc1cn([C@@H]2S[C@H](CO)[C@@H](O)[C@H]2O)c2ncnc(N)c12 [Compound 1g, (2R,3R,4S,5R)-2-(4-Amino-5-ethynyl-7H-pyrrolo[2,3-d]pyrimidin-7-yl)-5-(hydroxymethyl)tetrahydrothiophene-3,4-diol]
IC50 (A549): 60 nM | IC50 (HCT116): 30 nM | IC50 (MDA-MB-231): 50 nM | IC50 (PC-3): 4 nM | IC50 (SK-HEP-1): 50 nM | IC50 (SNU638): 30 nM | IC50 (ACHN): ~40 nM | inhibition at 1 µM (ABL1-nonphosphorylated): 39% | inhibition at 1 µM (ABL1-phosphorylated): 35% | inhibition at 1 µM (ACVR1B): 29% | inhibition at 1 µM (ADCK3): 8% | inhibition at 1 µM (AKT1): 7% | inhibition at 1 µM (AKT2): 4% | inhibition at 1 µM (AURKA): 22% | inhibition at 1 µM (CDK7): 52.3% | inhibition at 1 µM (CSNK1G2): 54% | inhibition at 1 µM (EGFR(L858R)): 0% | inhibition at 1 µM (IKK-alpha): 10% | inhibition at 1 µM (JNK1): 17% | inhibition at 1 µM (KIT(V559D,T670I)): 17% | inhibition at 1 µM (LKB1): 2% | inhibition at 1 µM (MAP3K4): 29% | inhibition at 1 µM (MARK3): 0% | inhibition at 1 µM (MET): 4% | inhibition at 1 µM (PAK1): 18% | inhibition at 1 µM (PCTK1): 0% | inhibition at 1 µM (PDGFRA): 0% | inhibition at 1 µM (PDGFRB): 8% | inhibition at 1 µM (PIK3CG): 0% | inhibition at 1 µM (PKAC-alpha): 11% | inhibition at 1 µM (PLK1): 0% | inhibition at 1 µM (PLK4): 0% | inhibition at 1 µM (PRKCE): 0% | inhibition at 1 µM (p38-alpha): 11%
